Calls of active or inactive are those of the source. No rule for the calls is given here.
Tested on: CCRIS mutagenicity, Ames/micronucleus/aberration tests
Assay: CCRIS mutagenicity studies
[1] = Test System: AMES SALMONELLA TYPHIMURIUM, Strain/Indicator: TA98, Metabolic Activation: NONE, Method: STANDARD PLATE
[2] = Test System: AMES SALMONELLA TYPHIMURIUM, Strain/Indicator: TA1535, Metabolic Activation: NONE, Method: STANDARD PLATE
[3] = Test System: AMES SALMONELLA TYPHIMURIUM, Strain/Indicator: TA1537, Metabolic Activation: NONE, Method: STANDARD PLATE
[4] = Test System: AMES SALMONELLA TYPHIMURIUM, Strain/Indicator: TA100, Metabolic Activation: NONE, Method: STANDARD PLATE

In the case of [Cr], the mutagenic call [1] is reported as “active; positive”, the mutagenic call (Test System: AMES SALMONELLA TYPHIMURIUM, Strain/Indicator: TA98, Metabolic Activation: RAT, LIVER, S-9, PHENOBARBITAL, Method: STANDARD PLATE) is reported as “inactive; negative” and the mutagenic call (Test System: AMES SALMONELLA TYPHIMURIUM, Strain/Indicator: TA102, Metabolic Activation: NONE, Method: STANDARD PLATE) is reported as “inactive; negative”. The mutagenic call (Test System: AMES SALMONELLA TYPHIMURIUM, Strain/Indicator: TA102, Metabolic Activation: RAT, LIVER, S-9, PHENOBARBITAL, Method: STANDARD PLATE) was “inactive; negative”, the mutagenic call [2] was “active; positive” and the mutagenic call (Test System: AMES SALMONELLA TYPHIMURIUM, Strain/Indicator: TA1535, Metabolic Activation: RAT, LIVER, S-9, PHENOBARBITAL, Method: STANDARD PLATE) was “inactive; negative”. The mutagenic call [3] was “inactive; negative” and the mutagenic call (Test System: AMES SALMONELLA TYPHIMURIUM, Strain/Indicator: TA1537, Metabolic Activation: RAT, LIVER, S-9, PHENOBARBITAL, Method: STANDARD PLATE) was “inactive; negative”.

For O=C1OCC(CBr)=C1Br, the mutagenic call [4] was “active; positive”.

For O=C1Nc2ccc(Cl)cc2C(c2ccccc2)=NC1O (stereo not drawn), the mutagenic call (End Point: IN VITRO MICRONUCLEUS, Test System: HUMAN - HUMAN AMNIOTIC FLUID FIBROBLAST-LIKE (AFFL) CELLS, Metabolic Activation: NONE) was “active; positive”, the mutagenic call (End Point: IN VITRO MICRONUCLEUS, Test System: MOUSE LYMPHOMA L5178Y CELLS, Metabolic Activation: NONE) was “active; positive” and the mutagenic call (End Point: IN VITRO MICRONUCLEUS, Test System: SYRIAN HAMSTER EMBRYO FIBROBLAST (SHE) CELLS, Metabolic Activation: NONE) was “active; positive”. For the same molecule, the mutagenic call (Test System: AMES SALMONELLA TYPHIMURIUM, Strain/Indicator: TA97, Metabolic Activation: HAMSTER, LIVER, S-9, AROCLOR 1254 (10%), Method: PREINCUBATION) was “inactive; negative”, the mutagenic call (Test System: AMES SALMONELLA TYPHIMURIUM, Strain/Indicator: TA97, Metabolic Activation: HAMSTER, LIVER, S-9, AROCLOR 1254 (30%), Method: PREINCUBATION) was “inactive; negative” and the mutagenic call (Test System: AMES SALMONELLA TYPHIMURIUM, Strain/Indicator: TA97, Metabolic Activation: NONE, Method: PREINCUBATION) was “inactive; negative”. For the same molecule, the mutagenic call (Test System: AMES SALMONELLA TYPHIMURIUM, Strain/Indicator: TA97, Metabolic Activation: RAT, LIVER, S-9, AROCLOR 1254 (30%), Method: PREINCUBATION) was “inactive; negative”, the mutagenic call (Test System: AMES SALMONELLA TYPHIMURIUM, Strain/Indicator: TA98, Metabolic Activation: HAMSTER, LIVER, S-9, AROCLOR 1254 (10 OR 30%), Method: PREINCUBATION) was “inactive; negative” and the mutagenic call (Test System: AMES SALMONELLA TYPHIMURIUM, Strain/Indicator: TA98, Metabolic Activation: NONE, Method: PREINCUBATION) was “inactive; negative”. For the same molecule, the mutagenic call [1] was “inactive; negative”, the mutagenic call (Test System: AMES SALMONELLA TYPHIMURIUM, Strain/Indicator: TA98, Metabolic Activation: RAT, LIVER, S-9, AROCLOR 1254 (10 OR 30%), Method: PREINCUBATION) was “inactive; negative” and the mutagenic call (Test System: AMES SALMONELLA TYPHIMURIUM, Strain/Indicator: TA98, Metabolic Activation: RAT, LIVER, S-9, AROCLOR 1254, Method: STANDARD PLATE) was “inactive; negative”. For the same molecule, the mutagenic call (Test System: AMES SALMONELLA TYPHIMURIUM, Strain/Indicator: TA100, Metabolic Activation: HAMSTER, LIVER, S-9, AROCLOR 1254 (10%), Method: PREINCUBATION) was “inactive; negative”, the mutagenic call (Test System: AMES SALMONELLA TYPHIMURIUM, Strain/Indicator: TA100, Metabolic Activation: HAMSTER, LIVER, S-9, AROCLOR 1254 (30%), Method: PREINCUBATION) was “inactive; negative” and the mutagenic call (Test System: AMES SALMONELLA TYPHIMURIUM, Strain/Indicator: TA100, Metabolic Activation: NONE, Method: PREINCUBATION) was “inactive; negative”. For the same molecule, the mutagenic call [4] was “inactive; negative”, the mutagenic call (Test System: AMES SALMONELLA TYPHIMURIUM, Strain/Indicator: TA100, Metabolic Activation: RAT, LIVER, S-9, AROCLOR 1254 (10%), Method: PREINCUBATION) was “inactive; negative” and the mutagenic call (Test System: AMES SALMONELLA TYPHIMURIUM, Strain/Indicator: TA100, Metabolic Activation: RAT, LIVER, S-9, AROCLOR 1254 (30%), Method: PREINCUBATION) was “inactive; negative”. The mutagenic call (Test System: AMES SALMONELLA TYPHIMURIUM, Strain/Indicator: TA100, Metabolic Activation: RAT, LIVER, S-9, AROCLOR 1254, Method: STANDARD PLATE) was “inactive; negative”, the mutagenic call (Test System: AMES SALMONELLA TYPHIMURIUM, Strain/Indicator: TA102, Metabolic Activation: HAMSTER, LIVER, S-9, AROCLOR 1254 (10%), Method: PREINCUBATION) was “inactive; negative” and the mutagenic call (Test System: AMES SALMONELLA TYPHIMURIUM, Strain/Indicator: TA102, Metabolic Activation: HAMSTER, LIVER, S-9, AROCLOR 1254 (30%), Method: PREINCUBATION) was “inactive; negative”. For the same molecule, the mutagenic call (Test System: AMES SALMONELLA TYPHIMURIUM, Strain/Indicator: TA102, Metabolic Activation: NONE, Method: PREINCUBATION) was “inactive; negative”, the mutagenic call (Test System: AMES SALMONELLA TYPHIMURIUM, Strain/Indicator: TA102, Metabolic Activation: RAT, LIVER, S-9, AROCLOR 1254 (10%), Method: PREINCUBATION) was “inactive; negative” and the mutagenic call (Test System: AMES SALMONELLA TYPHIMURIUM, Strain/Indicator: TA102, Metabolic Activation: RAT, LIVER, S-9, AROCLOR 1254 (30%), Method: PREINCUBATION) was “inactive; negative”. For the same molecule, the mutagenic call (Test System: AMES SALMONELLA TYPHIMURIUM, Strain/Indicator: TA1535, Metabolic Activation: HAMSTER, LIVER, S-9, AROCLOR 1254 (10%), Method: PREINCUBATION) was “inactive; negative”, the mutagenic call (Test System: AMES SALMONELLA TYPHIMURIUM, Strain/Indicator: TA1535, Metabolic Activation: HAMSTER, LIVER, S-9, AROCLOR 1254 (30%), Method: PREINCUBATION) was “inactive; negative” and the mutagenic call (Test System: AMES SALMONELLA TYPHIMURIUM, Strain/Indicator: TA1535, Metabolic Activation: NONE, Method: PREINCUBATION) was “inactive; negative”. The mutagenic call [2] was “inactive; negative”, the mutagenic call (Test System: AMES SALMONELLA TYPHIMURIUM, Strain/Indicator: TA1535, Metabolic Activation: RAT, LIVER, S-9, AROCLOR 1254 (10%), Method: PREINCUBATION) was “inactive; negative” and the mutagenic call (Test System: AMES SALMONELLA TYPHIMURIUM, Strain/Indicator: TA1535, Metabolic Activation: RAT, LIVER, S-9, AROCLOR 1254 (30%), Method: PREINCUBATION) was “inactive; negative”. The mutagenic call (Test System: AMES SALMONELLA TYPHIMURIUM, Strain/Indicator: TA1535, Metabolic Activation: RAT, LIVER, S-9, AROCLOR 1254, Method: STANDARD PLATE) was “inactive; negative”, the mutagenic call [3] was “inactive; negative” and the mutagenic call (Test System: AMES SALMONELLA TYPHIMURIUM, Strain/Indicator: TA1537, Metabolic Activation: RAT, LIVER, S-9, AROCLOR 1254, Method: STANDARD PLATE) was “inactive; negative”.

Cc1cc(N=Nc2ccccc2)c(N)cc1N was tested, and the mutagenic call (Test System: AMES SALMONELLA TYPHIMURIUM, Strain/Indicator: TA100, Metabolic Activation: HUMAN, LIVER, S-9, Method: PREINCUBATION) was “inactive; negative”, the mutagenic call (Test System: AMES SALMONELLA TYPHIMURIUM, Strain/Indicator: TA100, Metabolic Activation: RAT, LIVER, HEPATOCYTES, Method: PREINCUBATION) was “inactive; negative” and the mutagenic call (Test System: AMES SALMONELLA TYPHIMURIUM, Strain/Indicator: TA100, Metabolic Activation: RAT, LIVER, S-9, BETA-NAPHTHOFLAVONE, Method: PREINCUBATION) was “active; positive”. The mutagenic call (Test System: AMES SALMONELLA TYPHIMURIUM, Strain/Indicator: TA100, Metabolic Activation: RAT, LIVER, S-9, PHENOBARBITAL, Method: PREINCUBATION) was “active; positive”, the mutagenic call (Test System: AMES SALMONELLA TYPHIMURIUM, Strain/Indicator: TA100, Metabolic Activation: RAT, LIVER, S-9, Method: PREINCUBATION) was “active; positive” and the mutagenic call (Test System: UDS RODENT HEPATOCYTES, Strain/Indicator: THY INCORP, Metabolic Activation: NONE, Method: AUTORADIOGRAPHY) was “active; positive”.

Reference: PubChem BioAssay AID1259407 (Chemical Carcinogenesis Research Information System (CCRIS), 2018)
